Publication PMC7738871, “Covalent modification of Keap1 at Cys77 and Cys434 by pubescenoside a suppresses oxidative stress-induced NLRP3 inflammasome activation in myocardial ischemia-reperfusion injury” (Theranostics, 2021)
pKd: −log10 of the molar value.

Key:
[1] = system: Nrf2 knockdown H9c2 cells; experiment: OGD/R viability in Nrf2 siRNA knockdown H9c2; type: cell-based, rat; conditions: Nrf2 siRNA 24 h, H9c2, MTT
Method: Cell viability was determined by MTT assays. PBA was prepared to a stock solution dissolved in dimethyl sulfoxide (DMSO). RAW264.7, H9c2 cells, primary mouse cardiomyocytes were treated with different doses of PBA, and DMSO only as control for 48 h for the toxicity. In addition, H9c2 cells or primary mouse cardiomyocytes were treated with the indicated doses of PBA, diazoxide as positive control, DMSO only as control, then cultured with or without OGD/R treatment. At the end of the experiments, MTT was added into each well at the concentration of 0.5 mg/ml, and incubated at 37 °C for 4 h. After removal of the supernatant, 150 μL of DMSO was added to solubilize the formazan products. And the solution was measured at the absorbance of 490 nm by a spectrophotometer (Thermo Fisher Scientific, MA, USA). The results of the MTT assay in all groups were normalized to the control group with DMSO only treatment.
For transient transfection, HiPerFect Transfection Reagent (Qiagen, German) was used according to the manufacturer's instructions. Nrf2 siRNA (h) (sc-156128) and control siRNA-A (sc-37007) were bought from Santa Cruz Biotechnology. Briefly, H9c2 cells were seeded in 96-well plate at the density of 2x10^4 cells per well or 12-well plate at the density of 3x10^5 cells per well. According to preliminary results, transfection with siRNA for 24 h could get a better knockdown effect. […]

NLRP3 inflammasome = experiment: LPS plus ATP-induced NLRP3 inflammasome in RAW264.7; type: cell-based
Method: Based on the previous study, RAW264.7 cells were treated with different concentrations of PBA 1 h before 200 ng/mL lipopolysaccharide (LPS) stimulation for 6 h. Then, 2 mM adenosine triphosphate (ATP) was added and incubated for 20 min at 37 °C with 5% CO2.
Total protein was isolated from H9c2 cells, primary mouse cardiomyocytes, RAW264.7 cells and heart tissue using 1X RIPA buffer containing phosphatase and proteinase inhibitors at 4 °C. After measurement of the concentration, the cell lysates were separated by sodium dodecyl sulphate polyacrylamide gel electrophoresis (SDS-PAGE) and transferred to polyvinylidene fluoride (PVDF) membranes. The membranes were blocked in Tris-buffered saline-Tween 20 (TBST) buffer with 5% BSA for 1 h and incubated with primary antibodies (1:1000 dilution) overnight at 4 °C. After the membranes was washed by TBST buffer for three times, they were incubated with horseradish peroxidase (HRP)-conjugated secondary mouse or rabbit antibodies (1:3,000 dilution) at room temperature (RT) for 1.5 h and then detected by SuperEnhanced chemiluminescence (ECL) reaction reagents (GBCBIO Technologies Inc., Guangzhou, Guangdong, China). […] After letting the membranes stand for 1-2 min, the bands of the respective proteins were detected with the exposure time of 10 ~60 s.
According to previous experiences, Nrf2 nucleus translocation could be detected at 6 h. […]

Keap1 C273S = target: T1, Keap1 C273S (Homo sapiens, UniProt Q14145, C273S); experiment: ITC titration of PBA with Keap1-C273S; type: binding; conditions: 25 ℃
T1 construct: His (N); made in house; host or cells: E. coli BL21 (DE3)
Method: The Keap1 was amplified by PCR using a human cDNA library, and was subcloned into the vector pET28-TEV, which contained one tobacco etch virus (TEV) protease cleavage site at the upstream multiple cloning site. The protein was expressed in E. coli BL21 (DE3) cells and incubated at 37 °C until the OD600 value reached 0.6, using 0.2 mM isopropyl β-D-1-thiogalactopyranoside (IPTG) overnight induction at 18 °C. The cells were isolated by centrifugation, resuspended in ice-cold lysis buffer and lysed by cryogenic overpressure cell breaker at 1,200 psi. The lysates were centrifuged for 60 min at 14,000 rpm to obtain the supernatant. Gravity flow purification of Keap1 protein was obtained at room temperature using 1 mL of Ni-NTA and eluted in buffer containing 250 mM imidazole, followed by 1 mL of HiTrap QHP for the second step purification. The final protein was purified and validated by Superdex 200 10/300GL resin.
The mutant plasmid DNA was obtained by PCR. The PCR products were cleaved by DpnI restriction enzymes. The restriction endonuclease-cleaved mixture was subsequently transformed into E. coli DH5α. Colonies were evaluated by colony PCR and sequenced. The mutant plasmid was transformed into E. coli BL21 (DE3) after successful sequencing. The steps for expression and purification of all recombinants were described above.
Isothermal calorimetry (ITC) titration experiments were performed at 25 °C. WT Keap1, Keap1 mutants and PBA were dissolved in binding buffer (40 mM Tris-HCl pH 8.0, 250 mM NaCl). In a typical experiment, 60 μL of PBA (1 mM) was injected 19 times at 2-min intervals from a stirring syringe into the sample cell containing 300 μL of WT protein or mutants (30 μM). The first injection was 0.4 μL of PBA, and the subsequent 18 injections were 2 μL each time. The site-binding models were determined by using MicroCal Origin software.

T1 sequence (Q14145 whole entry C273S): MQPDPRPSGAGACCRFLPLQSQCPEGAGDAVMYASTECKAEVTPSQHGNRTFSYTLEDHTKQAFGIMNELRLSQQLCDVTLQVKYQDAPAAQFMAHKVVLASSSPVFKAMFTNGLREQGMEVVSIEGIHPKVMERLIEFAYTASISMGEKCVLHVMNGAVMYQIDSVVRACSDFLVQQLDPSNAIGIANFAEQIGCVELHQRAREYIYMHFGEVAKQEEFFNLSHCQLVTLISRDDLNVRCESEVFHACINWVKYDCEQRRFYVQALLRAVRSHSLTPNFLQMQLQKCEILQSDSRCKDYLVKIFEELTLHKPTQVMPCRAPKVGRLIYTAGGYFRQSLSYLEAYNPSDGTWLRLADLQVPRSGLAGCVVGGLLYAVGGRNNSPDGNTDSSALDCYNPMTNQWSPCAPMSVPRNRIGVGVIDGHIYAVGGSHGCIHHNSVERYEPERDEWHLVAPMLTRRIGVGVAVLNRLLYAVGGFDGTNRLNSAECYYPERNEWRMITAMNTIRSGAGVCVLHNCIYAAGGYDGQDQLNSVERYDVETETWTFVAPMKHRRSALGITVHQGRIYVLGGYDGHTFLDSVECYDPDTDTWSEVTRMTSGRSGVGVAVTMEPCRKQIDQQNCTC

- pKd (Keap1 C273S): 5.42
- T△S (Keap1 C273S): 3.53 ± 0.00 kcal/mol
- △G (Keap1 C273S): -7.40 ± 0.00 kcal/mol
- △H (Keap1 C273S): -3.87 ± 0.271 kcal/mol
SMILES: C=C(COC(=O)C=Cc1ccc(O)c(O)c1)C(O)COC1OC(CO)C(O)C(O)C1O (stereo not shown) [PBA, pubescenoside A]
- cardioprotection against OGD/R after Nrf2 knockdown [1]: blocked
- LPS/ATP-induced ACS and Caspase1 expression (immunofluorescent staining) (NLRP3 inflammasome; RAW264.7, 30 μM): significantly reduced
- LPS/ATP-mediated NLPR3 induction, cleaved-caspase1 and IL-1β (NLRP3 inflammasome; RAW264.7, PBA 1 h pretreatment, 200 ng/mL LPS 6 h, 2 mM ATP 20 min, western blot): attenuated
